Source: ChEMBL document CHEMBL1156076, “Design and efficient synthesis of novel arylthiourea derivatives as potent hepatitis C virus inhibitors” (Bioorg Med Chem Lett, 2009)

Experiments:
Hepatitis C virus = experiment: Antiviral activity against HCV 1b infected in human HuH7 cells assessed as inhibition of viral sub-genomic replication by EG(delta-4AB)SEAP reporter protein assay; type: functional, organism-based, Hepacivirus hominis; conditions: genotype 1b, Huh-7
[1] = Cytotoxicity against human HuH7 cells; type: cell-based, Huh-7
[2] = Selectivity index, ratio of CC50 for human HuH7 cells to EC50 for HCV 1b; parameters: species or system Huh-7

| Compound | EC50 (Hepatitis C virus) [nM] | CC50 [1] [nM] | Ratio CC50/EC50 [2] |
| --- | --- | --- | --- |
| NC(=S)Nc1cccc(OCCCCCNC(=S)Nc2ccc(Cl)cc2)c1 | 510 | > 50000 | >98 |
| NC(=S)Nc1cccc(OCCCCCCCCNC(=S)Nc2ccc3[nH]c4ccccc4c3c2)c1 | 89 | > 50000 | >562 |
| NC(=S)Nc1cccc(OCCCCCN2CCN(c3ccc(Cl)c(Cl)c3)C2=O)c1 | 210 | 13000 | 62 |
| NC(=S)Nc1cccc(OCCCCCCCCNC(=S)Nc2ccc(Br)cc2)c1 | 47 | 18000 | 383 |
| NC(=S)Nc1cccc(OCCCCCCCCNC(=S)Nc2ccc3c(c2)Cc2ccccc2-3)c1 | 118 | 25000 | 212 |
| NC(=S)Nc1cccc(OCCCCCN2CCN(c3cccc4ccccc34)C2=O)c1 | 570 | 15000 | 26 |
| NC(=S)Nc1cccc(OCCCCCc2ccccc2)c1 | 48 | 22000 | 458 |
| NC(=S)Nc1cccc(OCCCCCCCCNC(=S)Nc2ccc3c(c2)c2ccccc2n3CCc2ccccc2)c1 | 33 | > 50000 | >1515 |
| CCn1c2ccccc2c2cc(NC(=S)NCCCCCCCCOc3cccc(NC(N)=S)c3)ccc21 | 54 | > 50000 | >926 |
| Cc1c(NC(N)=S)cccc1OCCCCCNC(=S)Nc1cccc2ccccc12 | > 50000 | > 50000 | >1 |
| NC(=S)Nc1cccc(OCCCCCCCCNC(=S)Nc2ccc3c(c2)c2ccccc2n3Cc2ccccc2)c1 | 36 | > 50000 | >1389 |
| NC(=S)Nc1cccc(OCCCCCCCCNC(=S)Nc2ccc3c(c2)C(=O)c2ccccc2-3)c1 | 53 | > 50000 | >943 |
| NC(=S)Nc1cccc(OCCCCCNC(=O)Nc2cccc3ccccc23)c1 | 1390 | > 50000 | >36 |
| NC(=S)Nc1cccc(OCCCCCCNC(=S)Nc2cc(Cl)cc(Cl)c2)c1 | 122 | 21000 | 172 |
| NC(=S)Nc1cccc(OCCCCCCCCNC(=S)Nc2cc(Cl)cc(Cl)c2)c1 | 34 | 12000 | 353 |
| NC(=S)Nc1cccc(OCCCCCCCCNC(=S)Nc2ccc(N3CCOCC3)cc2)c1 | 316 | > 50000 | >158 |
| NC(=S)Nc1cccc(OCCCCCCCCNC(=S)Nc2ccccc2)c1 | 109 | > 50000 | >459 |
| CCCCCn1c2ccccc2c2cc(NC(=S)NCCCCCCCCOc3cccc(NC(N)=S)c3)ccc21 | 42 | > 50000 | >1190 |
| Cc1ccc(-n2c3ccccc3c3cc(NC(=S)NCCCCCCCCOc4cccc(NC(N)=S)c4)ccc32)cc1 | 31 | > 50000 | >1612 |
| NC(=S)Nc1cccc(OCCCCCN2CCN(c3ccc(Oc4ccccc4)cc3)C2=O)c1 | 27000 | > 50000 | >2 |
| NC(=S)Nc1cccc(OCCCCCN2CCN(c3ccc(Cl)c(Cl)c3)C2=S)c1 | 200 | > 50000 | >250 |
| NC(=S)Nc1cccc(OCCCCCNC(=S)Nc2cc(Cl)cc(Cl)c2)c1 | 177 | 18000 | 102 |
| NC(=S)Nc1cccc(OCCCCCN2CCN(c3ccc(Cl)cc3)C2=S)c1 | 260 | > 50000 | >192 |
| NC(=S)Nc1cccc(OCCCCCCCCNC(=S)Nc2ccc(C3CCCCC3)cc2)c1 | 71 | > 50000 | >704 |

| Compound | EC50 (Hepatitis C virus) [nM] | CC50 [1] [nM] | Ratio CC50/EC50 [2] |
| --- | --- | --- | --- |
| NC(=S)Nc1cccc(OCCCCCCCNC(=S)Nc2cc(Cl)cc(Cl)c2)c1 | 88 | 20000 | 227 |
| CCCCn1c2ccccc2c2cc(NC(=S)NCCCCCCCCOc3cccc(NC(N)=S)c3)ccc21 | 45 | > 50000 | >1111 |
| NC(=S)Nc1cccc(OCCCCCN2CCN(c3ccc(C4CCCCC4)cc3)C2=O)c1 | 290 | 12000 | 41 |
| NC(=S)Nc1cccc(OCCCCCN2CCN(c3ccc(C4CCCCC4)cc3)C2=S)c1 | 167 | > 50000 | >299 |
| NC(=S)Nc1cccc(OCCCCCCCCNC(=S)Nc2cccc(Br)c2)c1 | 93 | 20000 | 215 |
| CCCn1c2ccccc2c2cc(NC(=S)NCCCCCCCCOc3cccc(NC(N)=S)c3)ccc21 | 48 | > 50000 | >1042 |
| NC(=S)Nc1cccc(OCCCCCN2CCCN(c3ccc(Cl)cc3)C2=O)c1 | 1500 | 15000 | 10 |
| NC(=S)Nc1cccc(OCCCCCCCCNC(=S)Nc2ccc3c(c2)CCC3)c1 | 80 | 34000 | 425 |
| NC(=S)Nc1cccc(OCCCCCCCCNC(=S)Nc2ccc3[nH]ccc3c2)c1 | 148 | 18000 | 122 |
| NC(=S)Nc1cccc(OCCCCCCCCNC(=S)Nc2ccc3c(c2)c2ccccc2n3-c2ccccc2)c1 | 96 | > 50000 | >521 |
| NC(=S)Nc1cccc(OCCCCCN2CCCCN(c3ccc(Cl)cc3)C2=O)c1 | 250 | 13000 | 52 |
| Cn1c2ccccc2c2cc(NC(=S)NCCCCCCCCOc3cccc(NC(N)=S)c3)ccc21 | 80 | > 50000 | >625 |
| NC(=S)Nc1cccc(OCCCCCN2CCN(c3ccc(Cl)cc3)C2=O)c1 | 280 | 39000 | 139 |
| NC(=S)Nc1cccc(OCCCCCNC(=S)Nc2cccc3ccccc23)c1 | 450 | > 50000 | >111 |
| NC(=S)Nc1cccc(OCCCCCN2CCN(c3ccccc3-c3ccccc3)C2=S)c1 | 234 | > 50000 | >214 |
| NC(=S)Nc1cccc(OCCCCCN2CCN(c3cccnc3)C2=O)c1 | > 50000 | > 50000 | >1 |
| NC(=S)Nc1cccc(OCCCCCCCCNC(=S)Nc2ccc(Cl)cc2)c1 | 62 | 18000 | 290 |
| Cc1ccc(OCCCCCNC(=S)Nc2cccc3ccccc23)cc1NC(N)=S | 1030 | > 50000 | >49 |
| NC(=S)Nc1cccc(OCCCCCN2CCN(c3ccccc3-c3ccccc3)C2=O)c1 | 396 | 12000 | 30 |
| NC(=S)Nc1cccc(OCCCCCCCCNC(=S)Nc2ccccc2Br)c1 | 131 | 36000 | 275 |
| CCCCCCn1c2ccccc2c2cc(NC(=S)NCCCCCCCCOc3cccc(NC(N)=S)c3)ccc21 | 36 | > 50000 | >1389 |
| Cc1cc(C)cc(-n2c3ccccc3c3cc(NC(=S)NCCCCCCCCOc4cccc(NC(N)=S)c4)ccc32)c1 | 44 | > 50000 | >1136 |
| CC(C)(C)c1ccc(NC(=S)NCCCCCCCCOc2cccc(NC(N)=S)c2)cc1 | 60 | 17000 | 283 |
